Assay results from US12661370B2, “Amino acid salts of nicotinic acid ribosides as anti-aging agents” (Jumpstart Fertility Pty Ltd, priority 2018, dated 2026).

System: COV434 cells
Assay: NAD cell assay (NAD cycling method)
Assay type: cell-based
Conditions: cellular NAD level, 200 uM for 4 hr, normalised to protein, mole per mole comparison with NaR parent
Protocol: NAD levels were assayed based on the NAD cycling method of Zhu and Rand, PLoS One (2012), herein incorporated by reference. COV434 cells were maintained in 6 well plates and treated with the indicated compounds at a concentration of 200 uM for 4 hr. Media was removed, plates were washed in cold PBS and cells were scraped down in NAD extraction buffer containing 10 mM nicotinamide, 50 mM Tris HCl, 0.1% Triton X-100. Cells were homogenised by sonication for 5 seconds, and samples were centrifuged at 7,000 g for 5 min at 4 degrees. Aliquots were taken for later protein assay, and samples were then passed through 10 kDa amicon filters at 14,000 g, 30 min at 4 degrees to remove proteins from the sample. Each sample was measured in technical triplicate, with 25 μL sample added to 100 μL ADH cycling mix (0.2 mg/ml alcohol dehydrogenase enzyme, 2% ethanol, 100 mM Tris pH 8.5). Samples were allowed to cycle for 10 min at room temperature, followed by 50 μL addition of an MTT/PMS solution (0.1 mM phenazine methosulfate, 0.8 mM 3(4,5-Dimethylthiazol-2-yl)-2,5-diphenyltetrazolium bromide), 100 mM Tris-HCl pH 8.5). Plates were then incubated for 15 min and absorbance was measured at 570 nm. NAD concentrations were extrapolated from a standard curve, and normalised to protein concentrations determined by BCA protein assay.
The adjusted fold increase is obtained through a direct comparison on a mole per mole basis between the compared salt and its parent counterpart. In other words, the instant compounds derived from NaR parent molecule will only have their NAD activity level measured against NaR based on the same amount (mole) of salt tested in the cell. For example, the fold increase of compound I-002 is based on the NAD activity observed in a direct comparison for the same amount of mole in the cell and that of the NaR parent. Similarly, the fold increase of i-003 is based on the direct comparison with NaR.

| Compound | Fold increase adjusted for MW (compared to parent molecule) [fold] |
| --- | --- |
| O=C([O-])c1ccc[n+]([C@@H]2O[C@H](CO)[C@@H](O)[C@H]2O)c1 [NaR, reference compound] | 1.0 |
| (2S,3S)-2-Ammonio-3-methylpentanoate compound with 1-((2R,3R,4S,5R)-3,4-dihydroxy-5-(hydroxymethyl)tetrahydrofuran-2-yl)pyridine-1-ium-3-carboxylate (1:1) [Compound I-002] | 1.34 |
| (S)-2-Ammonio-3-(1H-indol-3-yl)propanoate compound with 1-((2R,3R,4S,5R)-3,4-dihydroxy-5-(hydroxymethyl)tetrahydrofuran-2-yl)pyridine-1-ium-3-carboxylate (1:1) [Compound I-003] | 1.76 |
